The values that follow come from ChEMBL document CHEMBL1681767, “Design and synthesis of tricyclic tetrahydroquinolines as a new series of nonsteroidal selective androgen receptor modulators (SARMs)” (Bioorg Med Chem Lett, 2011).

Calls of active or inactive are those of the source. The rule behind the calls is not given here.

The target of one assay is T1, Progesterone receptor (Oryctolagus cuniculus, UniProt P06186).
T1 sequence (P06186 whole entry): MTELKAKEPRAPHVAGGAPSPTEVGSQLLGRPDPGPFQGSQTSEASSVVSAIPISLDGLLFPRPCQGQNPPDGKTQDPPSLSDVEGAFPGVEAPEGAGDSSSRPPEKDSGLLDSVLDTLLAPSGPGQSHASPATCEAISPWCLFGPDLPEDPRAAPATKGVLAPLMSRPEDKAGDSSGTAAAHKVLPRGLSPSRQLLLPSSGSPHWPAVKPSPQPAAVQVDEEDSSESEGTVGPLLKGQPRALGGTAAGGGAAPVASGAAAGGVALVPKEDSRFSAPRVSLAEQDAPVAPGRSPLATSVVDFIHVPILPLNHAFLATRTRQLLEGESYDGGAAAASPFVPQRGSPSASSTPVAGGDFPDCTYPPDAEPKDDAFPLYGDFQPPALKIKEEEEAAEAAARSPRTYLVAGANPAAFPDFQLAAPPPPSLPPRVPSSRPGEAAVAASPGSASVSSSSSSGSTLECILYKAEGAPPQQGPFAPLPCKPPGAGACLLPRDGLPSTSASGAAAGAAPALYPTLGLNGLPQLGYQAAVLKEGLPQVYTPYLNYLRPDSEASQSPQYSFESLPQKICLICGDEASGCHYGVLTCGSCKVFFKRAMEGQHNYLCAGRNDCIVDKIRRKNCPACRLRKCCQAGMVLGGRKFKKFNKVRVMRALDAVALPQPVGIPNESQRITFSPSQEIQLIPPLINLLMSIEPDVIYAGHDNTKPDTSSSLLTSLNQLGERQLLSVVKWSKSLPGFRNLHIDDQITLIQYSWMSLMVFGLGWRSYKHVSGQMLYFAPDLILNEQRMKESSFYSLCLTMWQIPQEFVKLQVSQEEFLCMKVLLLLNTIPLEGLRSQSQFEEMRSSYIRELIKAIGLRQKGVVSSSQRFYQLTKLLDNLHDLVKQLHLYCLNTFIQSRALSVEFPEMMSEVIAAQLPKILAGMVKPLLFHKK
In words: Displacement of [3H]progesterone from rabbit PR by liquid scintillation counting. For orientation: Loss of bound radioactivity is the signal in a displacement assay; it reports binding, not function.

Assay [1] is described as follows: Displacement of [3H]17-beta-estradiol from rabbit ER by liquid scintillation counting. Also noted: species or system Oryctolagus cuniculus.
The target of another assay is T2, Glucocorticoid receptor (Rattus norvegicus, UniProt P06536).
T2 sequence (P06536 whole entry): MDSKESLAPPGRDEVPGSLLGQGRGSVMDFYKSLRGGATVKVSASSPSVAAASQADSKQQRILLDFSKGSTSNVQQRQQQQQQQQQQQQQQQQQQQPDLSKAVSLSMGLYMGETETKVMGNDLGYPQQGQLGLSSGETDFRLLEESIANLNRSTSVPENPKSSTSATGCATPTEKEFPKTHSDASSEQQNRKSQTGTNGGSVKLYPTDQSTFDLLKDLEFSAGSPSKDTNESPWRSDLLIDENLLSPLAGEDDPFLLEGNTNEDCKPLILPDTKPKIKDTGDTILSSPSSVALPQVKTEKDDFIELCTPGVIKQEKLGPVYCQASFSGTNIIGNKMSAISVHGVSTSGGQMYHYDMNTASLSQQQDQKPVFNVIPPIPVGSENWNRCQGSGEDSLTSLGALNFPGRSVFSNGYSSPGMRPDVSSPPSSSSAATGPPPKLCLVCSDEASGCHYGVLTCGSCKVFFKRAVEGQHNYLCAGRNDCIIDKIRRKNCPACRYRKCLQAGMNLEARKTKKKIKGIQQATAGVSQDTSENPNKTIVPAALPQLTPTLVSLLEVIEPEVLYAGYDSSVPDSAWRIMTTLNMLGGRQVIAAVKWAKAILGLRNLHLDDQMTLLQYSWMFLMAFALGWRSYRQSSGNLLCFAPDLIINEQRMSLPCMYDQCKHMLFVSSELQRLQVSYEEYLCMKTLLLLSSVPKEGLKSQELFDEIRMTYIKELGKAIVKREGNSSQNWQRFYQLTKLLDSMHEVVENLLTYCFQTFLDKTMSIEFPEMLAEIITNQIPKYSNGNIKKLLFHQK
In words: Displacement of [3H]dexamethasone from Sprague-Dawley rat GR by liquid scintillation counting.

The target in assay [2] is T3, Mineralocorticoid receptor (Rattus norvegicus, UniProt P22199).
T3 sequence (P22199 whole entry): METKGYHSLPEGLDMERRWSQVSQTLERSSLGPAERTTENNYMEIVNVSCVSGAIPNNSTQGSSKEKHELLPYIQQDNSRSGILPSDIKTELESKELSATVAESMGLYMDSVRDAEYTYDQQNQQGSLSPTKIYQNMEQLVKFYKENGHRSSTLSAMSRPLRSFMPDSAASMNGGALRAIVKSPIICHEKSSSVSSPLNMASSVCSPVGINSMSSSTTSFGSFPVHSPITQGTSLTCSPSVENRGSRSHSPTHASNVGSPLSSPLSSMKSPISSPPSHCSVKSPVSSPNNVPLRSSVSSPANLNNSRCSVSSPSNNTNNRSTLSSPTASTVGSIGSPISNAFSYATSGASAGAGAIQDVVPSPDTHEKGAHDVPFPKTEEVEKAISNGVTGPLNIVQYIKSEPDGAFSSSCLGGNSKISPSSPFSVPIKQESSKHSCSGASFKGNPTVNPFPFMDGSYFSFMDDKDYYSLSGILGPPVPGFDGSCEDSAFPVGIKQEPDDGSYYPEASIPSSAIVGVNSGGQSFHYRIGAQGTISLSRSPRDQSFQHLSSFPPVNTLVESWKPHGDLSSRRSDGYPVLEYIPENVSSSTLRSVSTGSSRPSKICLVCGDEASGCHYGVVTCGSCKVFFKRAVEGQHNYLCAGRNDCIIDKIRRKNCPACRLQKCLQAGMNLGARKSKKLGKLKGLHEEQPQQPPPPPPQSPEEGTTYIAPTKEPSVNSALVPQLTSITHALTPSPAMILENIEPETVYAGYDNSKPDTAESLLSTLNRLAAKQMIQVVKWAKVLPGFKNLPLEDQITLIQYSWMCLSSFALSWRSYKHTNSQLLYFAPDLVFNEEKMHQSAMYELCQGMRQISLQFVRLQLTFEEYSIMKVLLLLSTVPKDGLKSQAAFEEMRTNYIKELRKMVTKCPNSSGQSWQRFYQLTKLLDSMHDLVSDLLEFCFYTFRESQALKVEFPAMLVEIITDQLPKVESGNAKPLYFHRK
In words: Displacement of [3H]aldosterone from Sprague-Dawley rat MR by liquid scintillation counting.

Assay [3] relates to Rattus norvegicus. In words: Recovery of levator ani muscle weight in orchidectomized Sprague-Dawley rat at 3 mg/kg, sc. Type of assay: functional, organism-based. Also noted: dose 3 mg/kg.
The subject of assay [4] is Rattus norvegicus. The assay can be described thus: Recovery of […] weight in orchidectomized Sprague-Dawley rat at 3 mg/kg, sc relative to control. The assay is classed as functional. As to conditions: route subcutaneous.

Take `CC(C)(CO)[C@H]1Nc2ccc([N+](=O)[O-])cc2[C@H]2C=CC[C@H]21`: the concentration for half-maximal inhibition (IC50) on Progesterone receptor was 0.13 µM; in assay [1], more than 1000 µM; on Glucocorticoid receptor it was 18 µM; in assay [2], 6.3 µM. Moreover, the outcome in the assay on Rattus norvegicus [3] was Active. In addition, in the assay with Rattus norvegicus [4], the Activity stood at 50%.

In general, IC50 refers to the concentration that gives 50% inhibition. Low values mean greater potency in that assay, high ones weaker potency in that assay.
